Results as given in patent US5606038A, “Amphiphilic polyene macrolide antibiotic compounds” (Competitive Technologies, Inc., priority 1995, dated 1997).
Values after ≈ are worked out from the molar mass of the structure shown. Like-named read-outs stand apart in the source and are kept apart here.

What was measured:
[1] = critical micelle concentration in PBS by molar absorptivity at 409 nm; type: physicochemical; settings: PBS (pH 7.4), 37° C.
Description: In its monomeric state, Amphotericin B has a characteristic absorption band at 409 nm; upon aggregation, however, its apparent molar absorptivity decreases in magnitude [see Biochemistry 30:5707 (1991)]. Thus, by measuring its molar absorptivity as a function of the reciprocal of the macrolide concentration, one can estimate the critical micelle concentration. This can be shown mathematically by allowing T, m and P to represent the total, monomeric, and micellar concentrations (i.e. the concentration of the drug that is present in micellar form) of the macrolide, respectively, and if ε represents the apparent molar absorptivity and εm and εp are the molar absorptivity for the monomeric and micellar components, respectively, then it can be shown that ε=εp +(εm -εp)m/T. At concentrations in excess of the critical micelle concentration, m is a constant and ε is inversely proportional to T.
Using the method described previously, the critical micelle concentrations for Amphotericin B and the conjugates described in the preceding examples were determined and are reported in Table I describing the aggregation, antifungal and hemolytic properties of […] macrolide antibiotics (in μM amounts) according to the present invention.
^a critical micelle concentration was determined in PBS (pH 7.4) at […]

[2] = test system: Candida albicans; assay: minimum inhibitory concentration, Candida albicans, broth microdilution; type: cell-based; settings: 24 h, 37° C.
Description: ^c minimum inhibitory concentration (see Example IV); three different
strains of Candida albicans were tested; all tests were done in broth
microdilution in yeast nitrogen baseglucose at 37° C. for 24 hours
the initial inoculum was 1 × 10^4 blastospores per ml
The minimum inhibitory concentration reported in Table I was obtained, and further confirmed as reported in Table II, by the methods described in the following Example IV.
(§1) Microorganism inocula was harvested from one to five day old cultures grown on Sabourand's dextrose agar. After two washes with sterile saline, the inocula were counted utilizing a hemacytometer and diluted or concentrated as required to 1×10^4 blastospores per ml. Sterile molten agar (at 50° C.) was inoculated, allowed to cool, and 10 mm diameter discs impregnated (from […] stock solutions) with each of the test compounds was placed on the surface of the agar. Zones of inhibition were measured after incubating the plates at 30° C. for 24-48 hours.
(§2) The compounds were then screened against three strains of three species of microorganisms: Candida albicans, Cryptococcus neoformans, and Aspergillus fumigatus using a conventional double dilution technique. All tests reported in Table II were done by broth microdilution in yeast nitrogen base-glucose using an inoculum of 1×10^4 blastospores per ml; the cultures were incubated at 37° C. for 24 hours, and the minimum concentration (in μg/ml) that prevents visible growth was recorded as the minimum inhibitory concentration.

[3] = test system: Cryptococcus neoformans; assay: minimum inhibitory concentration, Cryptococcus neoformans, broth microdilution; type: cell-based; settings: 24 h
Description: as §1, §2

[4] = test system: Aspergillus fumigatus; assay: minimum inhibitory concentration, Aspergillus fumigatus, broth microdilution; type: cell-based; settings: 24 h, 37° C.
Description: as §1, §2

[5] = test system: Candida albicans; assay: K+ release from fungal cells; type: cell-based; settings: 3×10^7 fungal cells/ml, read-out: concentration for releasing 50% of the K+ from fungal cells
[6] = solubility in water; type: physicochemical
[7] = UV-vis spectroscopy of interaction with ergosterol-containing large unilamellar vesicles; settings: Example II: 2.6 μM; 1 mM egg phosphatidyl choline and 0.5 mM ergosterol; 20 minutes, 23° C.
Description: (§3) In order to confirm that the poly(ethylene glycol)conjugates of the present invention retain their ability to recognize ergosterol-rich bilayers, their interaction with sterol-containing large unilamellar vesicles (1000 A diameter, LUVs) by UV-vis spectroscopy using published techniques [see J. Am. Chem. Soc. 115:708 (1993)]. […] Thus, the poly(ethylene glycol) conjugates according to the present invention recognize ergosterol-rich bilayers in a way that is similar to Amphotericin B.

[8] = UV-vis spectroscopy of interaction with cholesterol-containing large unilamellar vesicles; settings: 2.6 μM; 1 mM egg PC and 0.5 mM cholesterol; 20 minutes, 23° C.
Description: as §3

[9] = test system: Cryptococcus neoformans (isolate NIH C-1); assay: survival of mice infected with Cryptococcus neoformans (Example VI); type: in vivo, Cryptococcus neoformans in ICR mice; settings: 30 mg/kg i.p. once per day
Description: (§4) Ten immunocompetent ICR mice weighing 30 g each in two groups were inoculated intravenously with 255 colony forming units of Cryptococcus neoformans (isolate NIH C-1) per mouse.

[10] = test system: C. neoformans; assay: second in vivo assay, survival of mice infected with C. neoformans; parameters: species or system C. neoformans in ICR mice; settings: 5 mg/kg subcutaneous BID
Description: as §4
A second in vivo assay was conducted as in Example VI with the exception that infection was with 488 colony forming units of C. neoformans, and that the test compound was administered 5 mg/kg, subcutaneous, BID.

[11] = test system: Candida albicans (isolate NIH A); assay: MIC against infecting isolate of Example V; type: cell-based; settings: 24 and 48 hours
[12] = hemolysis, 50% release of hemoglobin from human red blood cells; settings: human, red blood cells

Q: Which results are given for `COCCOCCOCCOCCOCCOCCNC(=O)[C@H]1[C@@H]2C[C@@H](O[C@@H]3O[C@H](C)[C@@H](O)[C@H](N)[C@@H]3O)/C=C/C=C/C=C/C=C/C=C/C=C/C=C/[C@H](C)[C@@H](O)[C@@H](C)[C@H](C)OC(=O)C[C@H](O)C[C@H](O)CC[C@@H](O)[C@H](O)C[C@H](O)C[C@](O)(C[C@@H]1O)O2` [Example II]?
A: cmc (critical micelle concentration) [1]: 25 µM; MIC ([2]; C. albicans (1), read-out: minimum inhibitory concentration): 6.4 µg/mL; MIC ([2]; C. albicans (2), read-out: minimum inhibitory concentration): 3.2 µg/mL; MIC ([2]; C. albicans (3), read-out: minimum inhibitory concentration): 3.2 µg/mL; MIC ([2]; three strains of Candida albicans, yeast nitrogen base-glucose, 1 × 10^4 blastospores per ml, read-out: MIC (minimum inhibitory concentration)): 2.7 µM; MIC ([3]; C. neoformans (1), 37° C., read-out: minimum inhibitory concentration): 3.2 µg/mL (≈ 2.66 µM); MIC ([3]; C. neoformans (2), 37° C., read-out: minimum inhibitory concentration): 3.2 µg/mL (≈ 2.66 µM); MIC ([3]; read-out: minimum inhibitory concentration, C. neofornams (3), 37° C.): 3.2 µg/mL (≈ 2.66 µM); MIC ([4]; A. fumigatus (1)): 6.4 µg/mL (≈ 5.33 µM); MIC ([4]; A. fumigatus (2)): 3.2 µg/mL (≈ 2.66 µM); MIC ([4]; A. fumigatus (3)): 3.2 µg/mL (≈ 2.66 µM); EC50 [5]: 1000 nM; solubility [6]: ≥ 10000 µg/mL; absorption spectrum change with ergosterol-containing vesicles [7]: strong diminution in the monomer band at 409 nm and new bands at 415, 390 and 375 nm; absorption spectrum with cholesterol-containing vesicles [8]: essentially the same as that observed in the presence of egg phosphatidyl choline vesicles (without sterol); percent survival ([9]; day 9 post-infection): 100%; percent survival ([9]; day 10 post-infection): 100%; percent survival ([9]; day 13 post-infection): 100%; percent survival ([9]; day 14 post-infection): 90%; percent survival ([9]; day 15 post-infection): 90%; percent survival ([9]; day 16 post-infection): 90%; percent survival ([9]; day 17 post-infection): 90%; percent survival ([9]; day 18 post-infection): 90%; percent survival ([9]; day 19 post-infection): 90%; percent survival ([9]; day 20 post-infection): 90%; percent survival ([9]; day 21 post-infection): 90%; percent survival ([9]; day 22 post-infection): 70%; percent survival ([9]; day 25 post-infection): 70%; percent survival ([9]; day 26 post-infection): 60%; percent survival ([9]; day 27 post-infection): 60%; percent survival ([9]; day 28 post-infection): 50%; percent survival ([9]; day 29 post-infection): 50%; percent survival ([9]; day 30 post-infection): 40%; percent survival ([10]; day 11 post-infection): 100%; percent survival ([10]; day 12 post-infection): 80%; percent survival ([10]; day 13 post-infection): 60%; percent survival ([10]; day 14 post-infection): 60%; percent survival ([10]; day 15 post-infection): 60%; percent survival ([10]; day 16 post-infection): 60%; percent survival ([10]; day 17 post-infection): 60%; percent survival ([10]; day 19 post-infection): 60%; percent survival ([10]; day 20 post-infection): 60%; percent survival ([10]; day 21 post-infection): 60%; percent survival ([10]; day 22 post-infection): 60%; percent survival ([10]; day 23 post-infection): 40%; percent survival ([10]; day 24 post-infection): 20%; percent survival ([10]; day 27 post-infection): 20%; percent survival ([10]; day 28 post-infection): 10%; percent survival ([10]; day 29 post-infection): 10%; percent survival ([10]; day 30 post-infection): 0%; MIC ([11]; in DMSO and water): 3.03 µg/mL (≈ 2.52 µM); MIC ([11]; in water only): ≤ 6.06 µg/mL; HC50 at 1 h [12]: 42 µM
